Test systems include SF-268; SK-OV-3; M19-MEL; NCI/ADR-RES; HOP-18; DMS-114; RPMI-8226; HOP-92; XF498; MCF7; SNB-78; KM-20L2; SK-MEL-5; SK-MEL-2; M14; TK-10; SR; 786-0; ACHN.
Holding throughout (assay): DTP human tumour cell line panel, 48 h

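Five compound concentrations were applied to cells in 96-well plates for 48 hours; endpoints were derived by simple linear interpolation of the resulting dose-response curve. The concentration for 50% growth inhibition is given as GI50.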 Calls of active or inactive are those of the source. Rule as the data show it: active = GI50 up to about 1.1 µM and inactive = higher.

As usually defined, the GI50 is the concentration giving 50% growth inhibition.

With `CCN(CC)CCCOC(=O)/C=C/c1c(C)[nH]c(=O)[nH]c1=O`, the GI50 in the assay with SF-268, in the assay on SK-OV-3, in the assay on M19-MEL, in the assay on NCI/ADR-RES, in the assay on HOP-18 and with DMS-114 was > 625 µM (inactive) throughout. The GI50 with RPMI-8226 was > 625 µM (inactive); with HOP-92, 56.9 µM (inactive); with XF498 it was > 625 µM (inactive); in the assay with MCF7 it was > 625 µM (inactive); in the assay on SNB-78 it was 542 µM (inactive); in the assay on KM-20L2 it was > 625 µM (inactive). Also, the GI50 with SK-MEL-5 is > 625 µM (inactive); in the assay with SK-MEL-2, > 394 µM (inactive).
For `O=C(O)CSc1nnc(/C=C/c2ccccc2)[nH]1`, the GI50 in the assay on SF-268 was > 100 µM (inactive); in the assay with M14 it was > 100 µM (inactive); with TK-10, > 100 µM (inactive); in the assay with SK-OV-3, > 100 µM (inactive); in the assay with M19-MEL, > 100 µM (inactive); with HOP-18 it was > 92.7 µM (inactive). Besides, the GI50 with DMS-114 was > 64.3 µM (inactive); with RPMI-8226, > 100 µM (inactive); in the assay on SR, > 100 µM (inactive); in the assay with HOP-92, > 100 µM (inactive); in the assay on 786-0 it was > 100 µM (inactive); with XF498, > 100 µM (inactive). Moreover, the GI50 in the assay on SNB-78, with ACHN, in the assay with KM-20L2, in the assay with SK-MEL-5 and with SK-MEL-2 was > 100 µM (inactive) each time.
Take `CSc1nc(NC2OC(CO)C(O)C(O)C2O)c(N)c(=O)n1C` (stereo unspecified): the GI50 with SF-268, in the assay with SK-OV-3, in the assay on M19-MEL, in the assay on NCI/ADR-RES, with HOP-18 and in the assay with DMS-114 was > 100 µM (inactive) in each case. Also, the GI50 in the assay with RPMI-8226, with HOP-92, in the assay on XF498, with MCF7, in the assay on SNB-78 and with KM-20L2 was > 100 µM (inactive) in each case. The GI50 in the assay on SK-MEL-5 and in the assay with SK-MEL-2 was > 100 µM (inactive) in each case.
With `N#CCCN(CCC#N)c1ccc(/C=C2\N=C(c3cc([N+](=O)[O-])ccc3Cl)N(S(=O)(=O)c3ccccc3)C2=O)cc1`, the GI50 in the assay with SF-268 is > 100 µM (inactive); in the assay with TK-10 it was > 100 µM (inactive); in the assay on SK-OV-3, > 100 µM (inactive); with M19-MEL it was > 100 µM (inactive); in the assay on HOP-18, 37.7 µM (inactive); in the assay with DMS-114 it was > 100 µM (inactive). The GI50 in the assay with RPMI-8226, in the assay with SR, in the assay on HOP-92, in the assay on XF498, in the assay on SNB-78 and in the assay with ACHN was > 100 µM (inactive) each time. Besides, the GI50 in the assay on KM-20L2, in the assay on SK-MEL-5 and in the assay with SK-MEL-2 was > 100 µM (inactive) in each case.
Turning to `COc1cc(O)c(Cc2ccccc2O)c(O)c1C(=O)CCc1ccccc1` [UVARETIN], the GI50 with SF-268 is 7.01 µM (inactive); with SK-OV-3, 6.15 µM (inactive); with M19-MEL it was 6.07 µM (inactive); in the assay with NCI/ADR-RES it was 5.66 µM (inactive); in the assay with HOP-18, 0.713 µM (active); with DMS-114, 4.09 µM (inactive). The GI50 was 2.44 µM (inactive) in the assay on RPMI-8226; 3.99 µM (inactive) with HOP-92; 3.21 µM (inactive) with XF498; 5.81 µM (inactive) in the assay on MCF7; 7.64 µM (inactive) in the assay with SNB-78; 7.35 µM (inactive) in the assay on KM-20L2. Moreover, the GI50 with SK-MEL-5 is 3.69 µM (inactive); in the assay with SK-MEL-2, 4.71 µM (inactive).
With `CSC(=S)N(C)c1nc(N(C)C)s[s+]1`, the GI50 in the assay on SF-268, in the assay on M14, in the assay on TK-10, in the assay on SK-OV-3, in the assay on M19-MEL and in the assay with HOP-18 was > 100 µM (inactive) throughout. In addition, the GI50 in the assay with DMS-114 is > 100 µM (inactive); in the assay on RPMI-8226, 19.9 µM (inactive); in the assay with SR it was > 100 µM (inactive); with HOP-92, > 100 µM (inactive); in the assay on 786-0 it was > 100 µM (inactive); in the assay with XF498, > 100 µM (inactive). In addition, the GI50 in the assay on SNB-78, in the assay on ACHN, in the assay on KM-20L2, in the assay on SK-MEL-5 and in the assay with SK-MEL-2 was > 100 µM (inactive) in each case.

The values are drawn from ChEMBL document CHEMBL1201862, “PubChem BioAssay data set” (2004).
